US5223515A, “Injectable solution containing a pyridyl methylsulfinylbenzimidazole” (Takeda Chemical Industries, Ltd., priority 1988, dated 1993)
Values after ≈ are worked out from the molar mass of the structure shown.

Columns and labels:
[1] = Solubility of Compound (I-1) in water at different pH; assay type: physicochemical
[2] = Stability of Compound (I-1) in aqueous solution; assay type: physicochemical
[3] = Example 2 / Table 2: stability of Compound (I-1) in the solution state (2 mg/ml, mixed solvents); assay type: physicochemical
Description: Ethanol, polyethylene glycol 400, propylene glycol and water were mixed at the composition ratios as shown in Table 2 illustrated below, and 2 mg of Compound (I-1) was dissolved in 1 ml each of the resulting solvents, respectively, followed by adjustment to pH 9.0 with 5N-aqueous sodium hydroxide solution. As a control, there were prepared a suspension of 2 mg of Compound (I-1) in 1 ml of water being adjusted to pH 9.0 with 5N-aqueous sodium hydroxide solution and an aqueous solution of 2 mg of Compound (I-1) in 1 ml of 0.01N aqueous sodium hydroxide solution.

[4] = Example 3 / Table 3: stability of Compound (I-1) in the solution state (5 mg/ml, mixed solvents); assay type: physicochemical
Description: Ethanol, polyethylene glycol 400, propylene glycol and water were mixed at the composition ratios as shown in Table 3 illustrated below, and 5-mg of Compound (I-1) was dissolved in 1 ml each of the resulting solvents, respectively, followed by adjustment to pH 9.0 with 5N-aqueous sodium hydroxide solution. As a control, there were prepared a suspension of 5 mg of Compound (I-1) in 1 ml of water being adjusted to pH 9.0 with 5N-aqueous sodium hydroxide solution and an aqueous solution of 5 mg of Compound (I-1) in 1 ml of 0.02N aqueous sodium hydroxide solution. […] (A control of the suspension was not subjected to sterile-filtration).
These test specimens as filled into ampoules were investigated for each item of appearance, pH and clarity immediately after preparation and after storage at 25° C.

[5] = Example 4 / Table 4: stability of lyophilized Compound (I-1) after being dissolved in vials; assay type: physicochemical; settings: for Solubility: lyophilized powder
Description: A 1000 mg quantity of Compound (I-1) was dispersed in distilled water for
injection, and 3 ml of 1N-aqueous sodium hydroxide solution was added to
dissolve the Compound (I-1), followed by addition of water to make up the
total of 50 ml and sterile filtration by the conventional method. The
resulting filtrate was filled in 1 ml portions into vials of a 12 cm^3
capacity, followed by lyophilization by means of the conventional
technique. The lyophilized powder as contained in vials was dissolved in
in Solvent A (which was composed of 50 mg of N-methylglucamine, 0.27 ml of
1N-hydrochloric acid and 2 ml of propylene glycol being admixed with
ethanol to make up the total of 4 ml), Solvent B (which was composed of 50
mg of N-methylglucamine, 0.27 ml of 1N-hydrochloric acid, 1.2 ml of
polyethylene glycol 400 and 1.2 ml of ethanol being admixed with distilled
water for injection to make up the total of 4 ml), Solvent C (which was
composed of 50 mg of N-methylglucamine, 0.27 ml of 1N-hydrochloric acid,
1.2 ml of ethanol and 1.2 ml of propylene glycol being admixed with
distilled water for injection to make up the total of 4 ml and Solvent D
(which was composed of 50 mg of N-methylglucamine, 0.27 ml of
1N-hydrochloric acid and 2.5 ml of polyethylene glycol 400 bing admixed
with distilled water for injection to make up the total of 4 ml),
respectively, to perform inspection for their solubilities as well as to
conduct investigation into appearance, clarity and contents immediately
after dissolution and after storage at 25° C. for 24 hours.

[6] = Example 1 / Table 1: stability of Compound (I-1) in the solution state (ethanol, propylene glycol); settings: for Content: HPLC
Description: Note, *As measured by use of highperformance liquid chromatography (HPLC)
chromatographic conditions of HPLC:
Carrier; Nucleosil 5 C18 (supplied by GasChro Kogyo K.K. of Japan)
Solvent; Methanol:water:triethylamine (60:40:1, pH 7)
Detection method; UV spectrophotometry at 285 nm

[7] = control: 2 mg in 0.01 N aq. sodium hydroxide 1 ml, after preparation
[8] = control: 2 mg in 0.01 N aq. sodium hydroxide 1 ml, after storage at 25° C./24 hrs.
[9] = 5 mg, PEG-400 0.3 ml, ethanol 0.3 ml, water 0.4 ml, after preparation
[10] = 5 mg, PEG-400 0.4 ml, water 0.6 ml, after preparation
[11] = 5 mg, ethanol 0.3 ml, propylene glycol 0.3 ml, water 0.4 ml, after preparation
[12] = 5 mg, ethanol 0.6 ml, water, after preparation
[13] = control: 5 mg in 0.02 N aq. sodium hydroxide 1 ml, after preparation
[14] = control: 5 mg in 0.02 N aq. sodium hydroxide 1 ml, after storage at 25° C./24 hrs.
[15] = Solvent A, after storage at 25° C. for 24 hrs.
[16] = Solvent B, after storage at 25° C. for 24 hrs.
[17] = Solvent C, after storage at 25° C. for 24 hrs.
[18] = Solvent D, after storage at 25° C. for 24 hrs.
[19] = Solvents A-D, after storage for 24 hours
[20] = 2 mg in ethanol 1 ml, after preparation
[21] = 2 mg in ethanol 1 ml, after storage at 25° C./24 hrs.
[22] = 2 mg in propylene glycol 1 ml, after preparation
[23] = 2 mg in propylene glycol 1 ml, after storage at 25° C./24 hrs.

Solubility ([1]; pH 11, water): 1 mg/mL (≈ 2.71 mM)
Solubility ([1]; pH 13, water): 33 mg/mL (≈ 89.3 mM)
stability in an aqueous solution ([2]; alkaline solution): satisfactorily stable
appearance of aqueous solution ([2]; neutral to acidic range, short period of time): dark purple
stability in an aqueous solution ([2]; pH decreased to the neutral to acidic range): less stable
Appearance ([3]; 2 mg, PEG-400 0.05 ml, ethanol 0.35 ml, water 0.6 ml, after preparation): Colorless
pH ([3]; 2 mg, PEG-400 0.05 ml, ethanol 0.35 ml, water 0.6 ml, after preparation (adjusted)): 9.0
Content ([3]; 2 mg, PEG-400 0.05 ml, ethanol 0.35 ml, water 0.6 ml, after preparation (taken as 100.0%)): 100.0%
Content ([3]; 2 mg, PEG-400 0.05 ml, ethanol 0.35 ml, water 0.6 ml, after storage at 25° C./24 hrs.): 98.0%
Appearance ([3]; 2 mg, PEG-400 0.05 ml, propylene glycol 0.35 ml, water 0.6 ml, after preparation): Colorless
pH ([3]; 2 mg, PEG-400 0.05 ml, propylene glycol 0.35 ml, water 0.6 ml, after preparation (adjusted)): 9.0
Content ([3]; 2 mg, PEG-400 0.05 ml, propylene glycol 0.35 ml, water 0.6 ml, after preparation (taken as 100.0%)): 100.0%
Content ([3]; 2 mg, PEG-400 0.05 ml, propylene glycol 0.35 ml, water 0.6 ml, after storage at 25° C./24 hrs.): 94.4%
Appearance ([3]; 2 mg, PEG-400 0.4 ml, water 0.6 ml, after preparation): Colorless
pH ([3]; 2 mg, PEG-400 0.4 ml, water 0.6 ml, after preparation (adjusted)): 9.0
Content ([3]; 2 mg, PEG-400 0.4 ml, water 0.6 ml, after preparation (taken as 100.0%)): 100.0%
Content ([3]; 2 mg, PEG-400 0.4 ml, water 0.6 ml, after storage at 25° C./24 hrs.): 91.8%
Appearance ([3]; 2 mg, ethanol 0.5 ml, propylene glycol 0.5 ml, after preparation): Colorless
pH ([3]; 2 mg, ethanol 0.5 ml, propylene glycol 0.5 ml, after preparation (adjusted)): 9.0
Content ([3]; 2 mg, ethanol 0.5 ml, propylene glycol 0.5 ml, after preparation (taken as 100.0%)): 100.0%
Content ([3]; 2 mg, ethanol 0.5 ml, propylene glycol 0.5 ml, after storage at 25° C./24 hrs.): 98.0%
dissolution of control specimens ([3]; control in water adjusted to same pH as other test specimens, 2 mg/ml): failed to allow adequate dissolution
pH needed to secure dissolution of control specimens ([3]; control, 2 mg/ml): not less than 11
Appearance [3, 7]: Colorless
pH [3, 7]: 11.4
Content ([3]; control: 2 mg in 0.01 N aq. sodium hydroxide 1 ml, after preparation (taken as 100.0%)): 100.0%
Appearance [3, 8]: Colorless
Content [3, 8]: 92.5%
pH ([3]; control: 2 mg in water 1 ml, after preparation (adjusted)): 9.1
Appearance [4, 9]: Colorless
Clarity [4, 9]: Clear
pH ([4]; 5 mg, PEG-400 0.3 ml, ethanol 0.3 ml, water 0.4 ml, after preparation (adjusted)): 9.0
Clarity ([4]; 5 mg, PEG-400 0.3 ml, ethanol 0.3 ml, water 0.4 ml, after storage at 25° C./24 hrs.): Clear
Appearance [4, 10]: Colorless
Clarity [4, 10]: Clear
pH ([4]; 5 mg, PEG-400 0.4 ml, water 0.6 ml, after preparation (adjusted)): 9.0
Clarity ([4]; 5 mg, PEG-400 0.4 ml, water 0.6 ml, after storage at 25° C./24 hrs.): Clear
Appearance [4, 11]: Colorless
Clarity [4, 11]: Clear
pH ([4]; 5 mg, ethanol 0.3 ml, propylene glycol 0.3 ml, water 0.4 ml, after preparation (adjusted)): 9.0
Clarity ([4]; 5 mg, ethanol 0.3 ml, propylene glycol 0.3 ml, water 0.4 ml, after storage at 25° C./24 hrs.): Clear
Appearance [4, 12]: Colorless
Clarity [4, 12]: Clear
pH ([4]; 5 mg, ethanol 0.6 ml, water, after preparation (adjusted)): 9.0
Clarity ([4]; 5 mg, ethanol 0.6 ml, water, after storage at 25° C./24 hrs.): Clear
dissolution of control specimens ([4]; control in water adjusted to same pH as other test specimens, 5 mg/ml): failed to allow adequate dissolution
pH needed to secure dissolution of control specimens ([4]; control, 5 mg/ml): not less than 11
Appearance [4, 13]: Colorless
Clarity [4, 13]: Clear
pH [4, 13]: 11.6
Appearance [4, 14]: Colorless
Clarity [4, 14]: Clear
pH ([4]; control: 5 mg in water 1 ml, after preparation (adjusted)): 8.9
pH after dissolution ([5]; Solvent A): 8.7
Appearance ([5]; Solvent A, after dissolution): Colorless
Clarity ([5]; Solvent A, after dissolution): Clear
Content ([5]; Solvent A, after dissolution (taken as 100%)): 100%
Clarity [5, 15]: Clear
Content [5, 15]: 97.0%
pH after dissolution ([5]; Solvent B): 9.0
Appearance ([5]; Solvent B, after dissolution): Colorless
Clarity ([5]; Solvent B, after dissolution): Clear
Content ([5]; Solvent B, after dissolution (taken as 100%)): 100%
Clarity [5, 16]: Clear
Content [5, 16]: 96.5%
pH after dissolution ([5]; Solvent C): 9.0
Appearance ([5]; Solvent C, after dissolution): Colorless
Clarity ([5]; Solvent C, after dissolution): Clear
Content ([5]; Solvent C, after dissolution (taken as 100%)): 100%
Clarity [5, 17]: Clear
Content [5, 17]: 96.7%
pH after dissolution ([5]; Solvent D): 9.0
Appearance ([5]; Solvent D, after dissolution): Colorless
Clarity ([5]; Solvent D, after dissolution): Clear
Content ([5]; Solvent D, after dissolution (taken as 100%)): 100%
Clarity [5, 18]: Clear
Content [5, 18]: 96.1%
Appearance ([5]; Solvents A, B, C, D (one spanning entry), after storage at 25° C. for 24 hrs.): Slightly to lightly green-yellow
change in content [5, 19]: decrease slightly
change in the clarity [5, 19]: no change
changes in appearance ([5]; Solvents A-D, immediately after dissolution and after storage for 24 hours): slight changes
dissolution of lyophilized powder ([5]; all of these solvents (A-D)): dissolved quickly
solubilities of lyophilized powder ([5]; all of these solvents (A-D)): excellent solubilities
Solubility ([5]; Solvent A (propylene glycol/ethanol)): Good
Solubility ([5]; Solvent B (PEG 400/ethanol/water)): Good
Solubility ([5]; Solvent C (ethanol/propylene glycol/water)): Good
Solubility ([5]; Solvent D (PEG 400/water)): Good
Appearance [6, 20]: Colorless
Clarity [6, 20]: Clear
Content ([6]; 2 mg in ethanol 1 ml, after preparation (taken as 100.0%)): 100.0%
Appearance [6, 21]: Yellowish
Clarity [6, 21]: Clear
Content [6, 21]: 99.2%
Appearance [6, 22]: Colorless
Clarity [6, 22]: Clear
Appearance [6, 23]: Light red-purple
Clarity [6, 23]: Clear
change in appearance ([6]; ethanol and propylene glycol, after storage at 25° C. for 24 hours): slight change
SMILES: Cc1c(OCC(F)(F)F)ccnc1C[S+]([O-])c1nc2ccccc2[nH]1 (centres unmarked) [Compound (I-1), 2-(3-methyl-4-trifluoroethoxy-2-pyridyl)methylsulfinylbenzimidazole]
